The target of this series is HSD17B13. The following applies: ASO, HepaRG.

The results in this text go back to the OligoGym collection.

Values joined by “and” are separate entries in the source; they are usually repeats but may differ in a detail not shown here. Identical values can stand only once. After the bases stand the sugars from the 5' end (letter, count) and the backbone: PS all phosphorothioate, else s phosphorothioate and o phosphodiester by linkage. Methylation of C is not given here. e = 2'-O-(2-methoxyethyl) (MOE); k = constrained ethyl (cEt); d = 2'-deoxy (DNA); m = 2'-O-methyl

On to TAGCTAAGGGAGAGTG (sugars k3 d10 k3, PS), for which the target mRNA inhibition (1 µM) was 9%.
On to TAGCTAAGTATACTTT (sugars k3 d10 k3, PS), for which the target mRNA inhibition (1 µM) was 10%.
With “TAGCTTTTGTCCACCT (sugars kkdddddddddkekek, PS)”, the target mRNA inhibition by setting is: (0.02 µM) 0%; (0.078 µM) 3%; (0.313 µM) 29%; (1 µM) 71%; (1.25 µM) 53%; (5 µM) 48%.
For the setting “1 µM”, “TAGCUGTGCACTCATT (sugars k3 d1 m1 d8 k3, PS)” came in with a target mRNA inhibition of 60%.
“TAGCUTTTGTCCACCT (sugars k3 d1 m1 d8 k3, PS)”: the target mRNA inhibition (0.02 µM) is 8%; the target mRNA inhibition (0.078 µM) was determined as 9%; the target mRNA inhibition (0.313 µM) is 26%; the target mRNA inhibition (1 µM) was 67% and 50%; the target mRNA inhibition (1.25 µM) is 54%; the target mRNA inhibition (5 µM) came to 78%.
Sequence TAGGAAGTGATCCATA (sugars k3 d10 k3, PS) returned a target mRNA inhibition (1 µM) of 30%.
Same read-out and setting: as for TAGGATGATGTTCATG (sugars k3 d10 k3, PS), the figure is 72%; as for TAGGATGTTGACCTCA (sugars k3 d10 k3, PS), 19%; as for TAGGATTAATTCCCTT (sugars k3 d10 k3, PS), 0%.
On the same count and under the same terms, as for “TAGTATAGTTATCTTC (sugars k3 d1 m1 d8 k3, PS)”, the figure is 13%; as for TAGTATTTGGGTGTTC (sugars k3 d10 k3, PS), 27%; as for TAGTCCTAGGGAGGAG (sugars k3 d10 k3, PS), 68%.
Same read-out and setting: the figure for “TAGTCTTCAGCAAAGT (sugars kkdddddddddkekek, PS)” is 35%.
Sequence “TAGTCTTGATGTAGTG (sugars k3 d1 m1 d8 k3, PS)” returned a target mRNA inhibition (1 µM) of 56%.
The sequence “TAGTGTAAGCTGAGAG (sugars kkdddddddddkekek, PS)” had a target mRNA inhibition (0.02 µM) of 24%; a target mRNA inhibition (0.078 µM) of 25%; a target mRNA inhibition (0.313 µM) of 37%; a target mRNA inhibition (1 µM) of 68%; a target mRNA inhibition (1.25 µM) of 51%; a target mRNA inhibition (5 µM) of 81%.
In turn, TATACTAGGATTAGAA (sugars k3 d10 k3, PS) displayed a target mRNA inhibition (1 µM) of 2%.
Same read-out and setting: as for TATACTGTCCCAGCAT (sugars k3 d10 k3, PS), the figure is 40%; as for “TATAGACTGGGTAGGA (sugars k3 d1 m1 d8 k3, PS)”, 30%.
Still for that read-out and setting: as for TATAGAGGGTCCACTT (sugars k3 d10 k3, PS), the figure is 17%; as for “TATAGTTATCTTCTCA (sugars kkdddddddddkekek, PS)”, 45%; as for TATATAACATGGCTGG (sugars k3 d10 k3, PS), 8%.
The sequence TATATGAGGTCTGTAT (sugars k3 d10 k3, PS) yielded a target mRNA inhibition (1 µM) of 42%.
The same measure, in the same setting: as for TATCAATGCCTTAGCC (sugars k3 d10 k3, PS), the figure is 15%.
The same measure, in the same setting: as for TATCAGAAACTTATAC (sugars k3 d10 k3, PS), the figure is 0%.
The same measure, in the same setting: as for TATCATACCACATACC (sugars k3 d10 k3, PS), the figure is 24%; as for TATCTTATAAGACTAT (sugars k3 d10 k3, PS), 43%; as for TATGAGTAAAGATCTA (sugars k3 d10 k3, PS), 10%.
Take “TATGUAATAGCCAGTA (sugars k3 d1 m1 d8 k3, PS)”: the target mRNA inhibition (1 µM) stood at 43%.
Still for that read-out and setting: as for “TATTAGAAGTCAGCCC (sugars k3 d1 m1 d8 k3, PS)”, the figure is 29%; as for TATTAGAAGTCAGCCC (sugars k3 d10 k3, PS), 27%.
For the sequence “TATTAGAAGTCAGCCC (sugars kkdddddddddkekek, PS)”, the target mRNA inhibition (1 µM) amounted to 36%.
Still for that read-out and setting: as for “TATTATGTGATTGAGT (sugars k3 d1 m1 d8 k3, PS)”, the figure is 28%; as for TATTCCCAACGCAACA (sugars k3 d10 k3, PS), 62%; as for TATTCTGTGGCATGGC (sugars k3 d10 k3, PS), 71%.
Still for that read-out and setting: the figure for “TATTGGTAAGTATTCC (sugars kkdddddddddkekek, PS)” is 36%.
TATTTCGCTACTGTAG (sugars k3 d10 k3, PS) showed a target mRNA inhibition (1 µM) of 48%.
The same measure, in the same setting: as for TCAAATGAGGCGGCAC (sugars k3 d10 k3, PS), the figure is 46%; as for TCAAATTAAGATGTCC (sugars k3 d10 k3, PS), 6%.
As to TCAACCTGCACACCAT (sugars k3 d10 k3, PS), the target mRNA inhibition (0.02 µM) was 14%; the target mRNA inhibition (0.078 µM) came to 32%; the target mRNA inhibition (0.313 µM) turned out to be 47%; the target mRNA inhibition (1 µM) turned out to be 72%; the target mRNA inhibition (1.25 µM) was 71%; the target mRNA inhibition (5 µM) amounted to 84%.
Consider TCAACTAAACATGACA (sugars k3 d10 k3, PS), for which the target mRNA inhibition came out at 0% (0.02 µM); 0% (0.078 µM); 42% (0.313 µM); 77% (1 µM); 69% (1.25 µM); 89% (5 µM).
Regarding TCAAGACATTCTAGCC (sugars k3 d10 k3, PS), for the setting “1 µM”, the target mRNA inhibition was 79%.
The same measure, in the same setting: the figure for TCAATTTATCATACCA (sugars k3 d10 k3, PS) is 26%.
On the same count and under the same terms, the figure for TCACATATGTGAAGAG (sugars k3 d10 k3, PS) is 27%; for TCACCAACGACTCCAA (sugars k3 d10 k3, PS) it is 19%; for TCAGATCCCGTTCTTG (sugars k3 d10 k3, PS) it is 59%.
Still for that read-out and setting: the figure for TCATAAGTAGTCTGCC (sugars k3 d10 k3, PS) is 62%.
Take “TCATAGTGGACTTCAT (sugars k3 d1 m1 d8 k3, PS)”: under “1 µM”, the target mRNA inhibition was 44%.
Same read-out and setting: the figure for “TCATAGTGGACTTCAT (sugars k3 d9 k3 e1, PS)” is 54%; for TCATTAAGCTTAGTAT (sugars k3 d10 k3, PS) it is 31%.
Still for that read-out and setting: the figure for TCCAAAAGTGTCCTCG (sugars k3 d10 k3, PS) is 31%; for TCCAAGGAGTGCATCT (sugars k3 d10 k3, PS) it is 46%.
On the same count and under the same terms, the figure for TCCAATTTAAATCAGG (sugars k3 d10 k3, PS) is 61%; for TCCAGTAAAAAATTGG (sugars k3 d10 k3, PS) it is 12%; for TCCAGTAGGTGTGTTT (sugars k3 d10 k3, PS) it is 47%.
Sequence “TCCATAATAATAGCTC (sugars kkdddddddddkekek, PS)” yielded a target mRNA inhibition (1 µM) of 41%.
On the same count and under the same terms, the figure for TCCATCTATCAGACTT (sugars k3 d10 k3, PS) is 42%.
In turn, TCCATGCAAAAGCATT (sugars k3 d10 k3, PS) displayed a target mRNA inhibition (1 µM) of 62%.
TCCATTGAATCTTCAA (sugars k3 d10 k3, PS) came in with a target mRNA inhibition (1 µM) of 57%.
As to “TCCAUAATAATAGCTC (sugars k3 d1 m1 d8 k3, PS)”, where the note is “1 µM”, the target mRNA inhibition was found to be 58%.
On the same count and under the same terms, the figure for TCCCAACCCAAGCTAC (sugars k3 d10 k3, PS) is 8%.
The sequence TCCCAAGGCCTGAAGT (sugars k3 d10 k3, PS) had a target mRNA inhibition (1 µM) of 43%.
The same measure, in the same setting: the figure for TCCGGTAAGAATTTCG (sugars k3 d10 k3, PS) is 63%.
For the sequence “TCCTGTGTTAGCTTTA (sugars k3 d9 k3 e1, PS)”, the target mRNA inhibition was 0% (0.02 µM); 0% (0.078 µM); 34% (0.313 µM); 75% and 50% (1 µM); 50% (1.25 µM); 81% (5 µM).
Where the note is “1 µM”, TCGGCACTCAGCTGCA (sugars k3 d10 k3, PS) had a target mRNA inhibition of 52%.
Still for that read-out and setting: the figure for TCGGCTGGATATACTG (sugars k3 d10 k3, PS) is 23%; for TCGGGAAGTTTAGACA (sugars k3 d10 k3, PS) it is 43%.
For the sequence “TCTAAACATCTCTGGG (sugars k3 d1 m1 d8 k3, PS)”, the target mRNA inhibition (1 µM) was 36%.
As to TCTAAACATCTCTGGG (sugars k3 d10 k3, PS), the target mRNA inhibition (1 µM) amounted to 40%.
Same read-out and setting: the figure for “TCTAAACATCTCTGGG (sugars kkdddddddddkekek, PS)” is 21%; for TCTAAACTAGTGGTAA (sugars k3 d10 k3, PS) it is 24%; for “TCTAAGTTAGCCCCCA (sugars k3 d1 m1 d8 k3, PS)” it is 7%.
Still for that read-out and setting: as for TCTACCACATACGCAT (sugars k3 d10 k3, PS), the figure is 55%; as for TCTATTAGTTGGCCTG (sugars k3 d10 k3, PS), 26%.
Still for that read-out and setting: as for TCTATTGATTGGCTTA (sugars k3 d10 k3, PS), the figure is 39%.
For TCTCCATCATCGATGG (sugars k3 d10 k3, PS), the target mRNA inhibition (1 µM) amounted to 24%.
Take TCTCTTAGCTGTGCAC (sugars k3 d10 k3, PS): the target mRNA inhibition by setting is: (0.02 µM) 15%; (0.078 µM) 30%; (0.313 µM) 52%; (1 µM) 79%; (1.25 µM) 74%; (5 µM) 89%.
Take “TCTCUTGACAATGGTT (sugars k3 d1 m1 d8 k3, PS)”: the target mRNA inhibition (1 µM) turned out to be 62%.
As to “TCTGGGACCAAGGATA (sugars k3 d9 k3 e1, PS)”, the target mRNA inhibition (1 µM) was found to be 57%.
Sequence “TCTTAAACCTTCCCTG (sugars kkdddddddddkekek, PS)” registered a target mRNA inhibition (1 µM) of 24%.
Take TCTTAAGATACCCAGG (sugars k3 d10 k3, PS): the target mRNA inhibition (1 µM) worked out at 58%.
Same read-out and setting: the figure for TCTTAAGGATCATTGC (sugars k3 d10 k3, PS) is 0%.
